Holding throughout (assay): NCI tumour cell line growth inhibition, 48 h
In test [1] the test system is MALME-3M melanoma.
Test [2] deals with SK-MEL-2 melanoma.
In test [3] the test system is HCT-116 colon.
The test system of test [4] is TK-10 renal.
The subject of test [5] is SNB-75 CNS.
The test system of test [6] is SF-268 CNS.
Test [7] relates to SK-MEL-5 melanoma.
Test [8] deals with OVCAR-5 ovarian.
Test [9] concerns T-47D breast.
Test [10] concerns MCF7 breast.

Each structure is given as a SMILES string. Several values for one entry are separate records, joined by “and”; a condition that tells them apart may be missing. Equal entries are not always repeated.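 Cultured in 96-well plates, cells were exposed to test compound for 48 hours across five concentrations. GI50 is the concentration that inhibits growth by half. At the TGI there is no net growth.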 Where only a bound is given, the exact number is not on record here.

In PubChem BioAssay (NCI) one finds TGI and GI50 data, which are given here for 15 compounds.

Turning to `CC(C)N(C(=O)C12C3C4C5(C#N)C3C1(C#N)C5C42C#N)C(C)C` (stereo unspecified), the TGI in test [1], in test [2], in test [3], in [4], in test [5] and in test [6] was greater than 100 µM in each case. Further, the TGI in test [7] and in test [8] was greater than 100 µM throughout.

For `C=C[C@@H](C)[C@]1(C(=O)OC)CCCC12OCCO2`, the TGI in test [1], in [2], in test [3], in [4], in test [5] and in test [6] was greater than 100 µM each time. Moreover, the TGI in [7] and in test [8] was greater than 100 µM in each case.

On to `CN(CCS(=O)(=O)N1C(=O)C2CCCN2C(=O)[C@@H]1Cc1ccccc1)C(=O)OCc1ccccc1` (stereo partly specified), for which the TGI in [1], in [3], in test [4], in test [5], in [6] and in [7] was greater than 100 µM in each case. In addition, the TGI in test [8] is greater than 100 µM.

Regarding `O=C(/C=C\c1ccccc1O)c1ccc(O)cc1O`, the TGI in [1], in test [2], in test [3], in [4], in [6] and in test [7] was greater than 100 µM each time. This compound also came in with a TGI in test [8] greater than 100 µM.

Consider `O=C1[C@H]2ON(c3ccccc3)C(c3ccc([N+](=O)[O-])cc3)[C@H]2C(=O)N1c1ccc(Cc2ccc(N3C(=O)[C@@H]4ON(c5ccccc5)C(c5ccc([N+](=O)[O-])cc5)[C@@H]4C3=O)cc2)cc1` (stereo partly specified), for which the TGI in [1], in [2], in [3], in test [4], in test [5] and in test [6] was greater than 100 µM throughout. The TGI in test [7] and in test [8] was greater than 100 µM throughout.

With `Cc1ccc(C)c(N2C(=O)C(=O)C(c3nc4ccccc4s3)/C(=N/N)C2=O)c1` (stereo unspecified), the TGI in [1], in [2], in test [3], in test [4], in test [5] and in [6] was greater than 100 µM each time. Besides, the TGI in [7] and in test [8] was greater than 100 µM throughout.

For `CSc1ccc2c(cc1=O)[C@@H](NC(=O)c1cccc([N+](=O)[O-])c1)CCc1cc(O)c(O)c(O)c1-2`, the TGI is greater than 100 µM in test [1]; greater than 100 µM in [2]; 35.9 µM in test [3]; greater than 100 µM in [4]; 86.1 µM in test [5]; greater than 100 µM in test [6]. Also, the TGI in [8] is greater than 100 µM.

Take `NCCSSCc1ccccc1CSSCCN`: the TGI in test [1], in test [3], in test [4], in test [5], in test [6] and in test [7] was greater than 100 µM in each case. The TGI in [8] is greater than 100 µM.

With `Cc1cnc2ccc(C)c([N+](=O)[O-])c2c1NCCCN(C)C`, the TGI in test [1], in test [2], in test [3], in test [4], in test [6] and in [8] was greater than 100 µM each time.

Consider `C/C(=N\N=C(N)N)C(CN1CCCCC1)C(c1ccccc1)c1c(O)c2ccccc2oc1=O` (stereo unspecified), for which the TGI in [1], in test [2], in test [3], in test [4], in test [5] and in test [6] was greater than 100 µM in each case. In addition, the TGI in test [8] is greater than 100 µM.

Consider `Cc1c(C)c2ccc3oc4ccccc4c3c2oc1=O`, for which the TGI in test [1], in test [3], in test [4], in test [5], in test [6] and in test [7] was greater than 100 µM in each case. This compound also returned a TGI in test [8] greater than 100 µM.

In the case of `COc1cc2cc(OC(C)=O)c3cc4c(cc3c2c(OC)c1OC)OCO4`, the TGI in [1], in test [2], in [3], in test [4], in test [5] and in [6] was greater than 100 µM throughout. Further, the TGI in [7] and in test [8] was greater than 100 µM each time.

As to `COC(=O)[C@@H]1c2cc3c(c(O)c2[C@@H](OC2OC(C)C(OC)C(C)(OC)C2OC)C[C@]1(C)O)C(=O)c1c(O)cc2c(c1C3=O)O[C@H]1O[C@]2(C)[C@H](O)[C@@H](N(C)C)[C@@H]1O` (stereo partly specified), the TGI was 0.0666 µM and 0.0545 µM in [1]; 0.0134 µM and 0.0177 µM in test [2]; 0.0522 µM and 0.0125 µM in test [5]; 0.329 µM and 0.135 µM in test [6]; 0.889 µM in test [9]; 0.0278 µM in [7]. The GI50 was 0.0386 µM in test [4] and 0.0651 µM in test [8].

Regarding `NS(=O)(=O)OC[C@H]1C[C@@H](Nc2ccnc3cc(-c4cccc(SC(F)(F)F)c4)nn23)[C@H](O)[C@@H]1O`, the GI50 in test [1] was 0.0275 µM; in test [2] it was 0.0316 µM; in test [10], 0.0214 µM; in test [3], 0.0159 µM; in [4], 0.126 µM; in test [5], 0.0397 µM. For the same compound, the GI50 is 0.0265 µM in test [6], 0.0133 µM in test [7] and 0.0578 µM in [8]. In addition, the TGI in test [1] turned out to be 0.0652 µM; in test [2] it was 0.118 µM; in test [10] it was 0.173 µM; in test [3] it was 0.0571 µM; in test [4], 0.336 µM; in test [5] it was 0.187 µM. The TGI amounted to 0.0711 µM in test [6], 0.0278 µM in [7] and 2.83 µM in test [8].

Regarding `N#C/C(=C\c1cc(O)cc(O)c1)C(N)=O`, the TGI in test [1], in test [2], in [3], in test [4], in [5] and in test [6] was greater than 100 µM throughout. The TGI in [8] was greater than 100 µM.
